How the values were obtained:
Dihydrofolate reductase [1] = molecular target: T1, Dihydrofolate reductase (Pneumocystis carinii, UniProt P16184)
T1 sequence (P16184 whole entry): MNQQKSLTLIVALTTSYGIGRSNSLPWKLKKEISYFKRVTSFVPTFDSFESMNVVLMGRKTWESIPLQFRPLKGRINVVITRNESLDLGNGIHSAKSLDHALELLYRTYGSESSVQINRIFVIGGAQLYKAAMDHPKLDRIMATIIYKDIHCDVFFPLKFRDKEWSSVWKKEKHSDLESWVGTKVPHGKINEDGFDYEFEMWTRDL
Description: Inhibitory concentration against Dihydrofolate reductase from Pneumocystis carinii (pc)

Dihydrofolate reductase [2] = molecular target: T2, Dihydrofolate reductase (Rattus norvegicus, UniProt Q920D2)
T2 sequence (Q920D2 whole entry): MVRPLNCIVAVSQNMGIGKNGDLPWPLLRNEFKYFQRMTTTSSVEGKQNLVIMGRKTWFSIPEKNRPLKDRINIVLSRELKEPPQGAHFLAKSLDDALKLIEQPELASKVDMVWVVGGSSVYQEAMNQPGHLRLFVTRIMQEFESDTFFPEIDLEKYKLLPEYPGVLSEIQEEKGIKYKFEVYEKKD
Description: Inhibitory concentration against Dihydrofolate reductase from Rat liver (rl)

[3] = molecular target: T3, Bifunctional dihydrofolate reductase-thymidylate synthase (Toxoplasma gondii, UniProt Q07422)
T3 sequence (Q07422 whole entry): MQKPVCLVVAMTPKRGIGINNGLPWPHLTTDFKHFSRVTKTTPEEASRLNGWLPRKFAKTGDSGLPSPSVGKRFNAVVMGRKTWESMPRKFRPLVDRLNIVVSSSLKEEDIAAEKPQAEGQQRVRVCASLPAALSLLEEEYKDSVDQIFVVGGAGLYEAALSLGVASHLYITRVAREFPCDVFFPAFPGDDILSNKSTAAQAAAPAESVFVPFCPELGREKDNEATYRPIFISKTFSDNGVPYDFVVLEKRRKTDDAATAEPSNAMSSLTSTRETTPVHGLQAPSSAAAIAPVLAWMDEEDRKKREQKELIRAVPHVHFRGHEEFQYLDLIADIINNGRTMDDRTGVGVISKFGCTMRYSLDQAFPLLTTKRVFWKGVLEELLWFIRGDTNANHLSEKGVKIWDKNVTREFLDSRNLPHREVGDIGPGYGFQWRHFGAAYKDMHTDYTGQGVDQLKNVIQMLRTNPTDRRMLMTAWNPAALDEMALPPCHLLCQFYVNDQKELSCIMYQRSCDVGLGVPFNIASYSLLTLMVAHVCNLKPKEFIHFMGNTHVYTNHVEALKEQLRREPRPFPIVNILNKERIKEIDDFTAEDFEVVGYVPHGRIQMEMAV
Description: Inhibitory concentration against Dihydrofolate reductase from Toxoplasma gondii (tg)

IC50 (Dihydrofolate reductase [1]) | IC50 (Dihydrofolate reductase [2]) | Compound | IC50 [3]
2.6 µM | 2.1 µM | COc1ccc(/C=C/c2cnc3nc(N)nc(N)c3c2)cc1OC | 1.4 µM
0.29 µM | 0.26 µM | COc1ccc(CCc2cnc3nc(N)nc(N)c3c2)cc1 | 0.25 µM
5.3 µM | 11.8 µM | COc1ccc(/C=C/c2cnc3nc(N)nc(N)c3c2)cc1 | 1.5 µM
1.4 µM | 0.61 µM | COc1ccc(CCc2cnc3nc(N)nc(N)c3c2)cc1OC | 0.2 µM
 | 1.14 µM | COc1cc(CCc2cnc3nc(N)nc(N)c3c2)cc(OC)c1OC | 0.2 µM

More lines, now with the values behind:

Compound | IC50 (Dihydrofolate reductase [1]) | IC50 (Dihydrofolate reductase [2]) | IC50 [3]
COc1cc(/C=C/c2cnc3nc(N)nc(N)c3c2)cc(OC)c1OC | > 5 µM | 12.9 µM | 1.4 µM
COc1cc(CCC2CNc3nc(N)nc(N)c3C2)cc(OC)c1OC (stereo unspecified) | 61.7 µM | 6.1 µM | 0.47 µM
COc1cc(N(C=O)Cc2cnc3nc(N)nc(N)c3c2)cc(OC)c1OC | 18.5 µM | 7.4 µM | 1.1 µM
COc1ccc(CCC2CNc3nc(N)nc(N)c3C2)cc1OC (stereo unspecified) |  | 2.1 µM | 1.1 µM
CCN(Cc1cnc2nc(N)nc(N)c2c1)c1cc(OC)c(OC)c(OC)c1 | 0.19 µM | 0.12 µM | 0.049 µM
COc1cc(N(C)Cc2cnc3nc(N)nc(N)c3c2)cc(OC)c1OC |  | 0.28 µM | 
COc1cc(NCc2cnc3nc(N)nc(N)c3c2)cc(OC)c1OC |  | 1.9 µM | 0.3 µM
